Molecules are shown by their SMILES. Like-named read-outs stand apart in the source and are kept apart here.

The text below walks through data of patent US6310247A, “7-aryl-6(Z)-heptatrienoic acid retinamides” (Hoffmann-LA Roche Inc., priority 1999, dated 2001).

For one data set, the system named is human carcinoma cells. To be noted: in vitro; cited from earlier work.
The test system of a further data set is tumor cells. To be noted: cited from earlier work; for Differentiation of certain tumor cells (in words): in vitro.
A further data set relates to MDA-435 cells. Kind of data set: Apoptosis: cell death detection by ELISA, MDA-435. To be noted: for fold induction at 1 µM / fold induction at 3.3 µM / fold induction at 10 µM: Homo sapiens; for fold induction at 10 µM / Fold induction of apoptosis, internal positive control (cont.): 10 uM. In kind it is cell-based, human. Here is the method: ER- breast carcinoma, human (MDA-435) obtained from Dr. Janet Price, MDA Cancer Center, Houston, Tex., were grown in Gibco's RPMI 1640 media supplemented with sodium pyruvate, 10% FBS and 13 ng/mL gentamicin. Cells were incubated at 37° C., 4.5% CO2 and 95.5% humidified air.
(§1) 2. Apoptosis: Cell death detection by ELISA:
(§2) Compounds of formula 1 were tested for the ability to cause apoptosis as follows:
(§3) Cells and media were collected, cells were pelleted, resuspended in 100 μl lysis buffer (50 mM Tris-Cl (pH=8.0), 20 mM EDTA, 1% NP-40e) and incubated 30 minutes at 4° C. to lyse. Cell debris was spun down and an aliquot (30 μl) of the […] was removed for protein determination and stored at -20° C. An additional 280 μl of lysis buffer, was added, mixed thoroughly and spun down at 14,000 RPM for 10 minutes at 4° C. An aliquot was removed (180 μl) and the sample was stored at -20° C. until testing.
(§4) A commercially available apoptosis detection kit, obtained from Boehringer Mannheim (Cat. No. 1544-674), was used as per the directions provided with the kit (Cell Death Detection ELISA). However, the protocol was modified in that a 1:40 to 1:100 dilution of sample was prepared, rather than the recommended 1:10 dilution, due to the increase in cell number used to prepare the sample extract and the subsequent increase in ELISA reactivity. The assay measures apoptosis by quantifying the amount of nucleosomal fragmentation from the extracts of cells treated with the test compounds (samples). These nucleosomal fragments, generated by the activation of endonucleases, are a known downstream effector of apoptosis. Antihistone antibodies are used to fix any nucleosomal fragments in the sample to the well of the microtiter plates. The sample is then incubated with anti-DNA antibodies conjugated to peroxidase and subsequently incubated with the peroxidase substrate, ABTS. The resulting colorimetric change is measured spectrophotometrically at 405/490nm.
(§5) The total protein content of each sample was determined for the purpose of normalizing the ELISA values to amount of sample loaded. Microplate assay protocol described in the instruction manual, for (Biorad DC Assay, Cat.#500-0116) section 5.2. The protein concentrations were calculated based upon a linear regression curve.
(§6) d) ELISA assay calculations
(§7) Relative ELISA O.D. readings are determined by subtracting the ELISA plate background O.D. value. No drug control O.D. value (lysis buffer only) was subtracted from sample O.D. value. A correction coefficient (CC), based on the sample protein concentration compared to no drug control, was determined to correct the sample O.D. following subtraction of the background O.D. (BCS O.D.). The fold increase over no drug control is calculated and normalized to the total protein concentration of the samples by multiplying against the correction coefficient.
(§8) To determine the fold increase in ELISA O.D., obtain the following O.D. measurements:
(§9) ELISA plate background--lysis buffer only (EPB);
(§10) no drug treated control--cell sample treated with DMSO (NDT);
(§11) drug treated sample--cell sample treated with a compound of formula 1 (DT) Subtract EPB from NDT (NDT-EPB) and DT (DT-EPB). The fold increase of the treated over the control is then (DT-EPB)/(NDT-EPB).
(§12) To determine the total protein concentration of the samples, obtain the total protein concentration in mg/ul calculated using standard linear regression formula (y=mx+b) based on BSA standards. B=ELISA background. Protein concentration (PC)(mg/ml)=(sample absorbance-b)/x.
(§13) Correction coefficient (cc) is (NDT)(PC)/(DT)(PC).
(§14) Determine fold increase of ELISA (FT) normalized to total PC:
(§15) nDT is DT×cc (which is DT O.D. normalized to PC)
(§16) nNDT is NDT×cc (which is NDT O.D. normalized to PC)
(§17) FI normalized to PC is nDT/nNDT.
For orientation: In an ELISA, binding on a coated surface is turned into a signal by an enzyme label.

The next data set relates to ZR-75-1 cells. As to the kind of experiment: Apoptosis: cell death detection by ELISA, ZR-75-1. In kind it is cell-based, human. To be noted: for fold induction at 1 µM / fold induction at 3.3 µM / fold induction at 10 µM: Homo sapiens. Here is the method: ER+ breast carcinoma, human (ZR-75-1) obtained from ATCC (CRL 1500), were grown in Gibco's RPMI 1640 media supplemented with sodium pyruvate, 10% FBS and 13 ng/mL gentamicin. Cells were incubated at 37° C., 4.5% CO2 and 95.5% humidified air.
as §1, §2, §3, §4, §5, §6, §7, §8, §9, §10, §11, §12, §13, §14, §15, §16, §17

The subject of data set [1] is ER+ and ER- breast carcinoma cells. As to the kind of experiment: Induction of apoptosis in ER+ and ER- carcinoma cells (statements in words). It is filed as cell-based, human. Here is the method:
as §1, §2, §3
A commercially available apoptosis detection kit, obtained from Boehringer Mannheim (Cat. No. 1544-674), was used as per the directions provided with the kit (Cell Death Detection ELISA). […] The assay measures apoptosis by quantifying the amount of nucleosomal fragmentation from the extracts of cells treated with the test compounds (samples). […] The resulting colorimetric change is measured spectrophotometrically at 405/490nm.
The total protein content of each sample was determined for the purpose of normalizing the ELISA values to amount of sample loaded. […] The protein concentrations were calculated based upon a linear regression curve. […]
Relative ELISA O.D. readings are determined by subtracting the ELISA plate background O.D. value. […] A correction coefficient (CC), based on the sample protein concentration compared to no drug control, was determined to correct the sample O.D. following subtraction of the background O.D. (BCS O.D.). The fold increase over no drug control is calculated and normalized to the total protein concentration of the samples by multiplying against the correction coefficient. […]
To determine the total protein concentration of the samples, obtain the total protein concentration in mg/ul calculated using standard linear regression formula (y=mx+b) based on BSA standards. […] Protein concentration (PC)(mg/ml)=(sample absorbance-b)/x. […]

Another data set relates to H1299 cells. Kind of data set: Apoptosis: cell death detection by ELISA, H1299 (lung large cell carcinoma). It is filed as cell-based. To be noted: Homo sapiens, NCI-H1299, 10 uM, read-out: Fold induction of apoptosis, internal positive control (cont.). Here is the method: Lung, large cell carcinoma, human (H1299), obtained from ATCC (CRL-5803), were grown in Gibco's Delbecco Minimum Essential media (DMEM), high glucose, supplemented with sodium pyruvate, 10% FBS and 13 ng/mL gentamicin. Cells were incubated at 37° C., 4.5% CO2 and 95.5% humidified air.
as §1, §2, §3, §4, §5, §6, §7, §8, §9, §10, §11, §12, §13, §14, §15, §16, §17

The test system of the next data set is RKO cells. As to the kind of experiment: Apoptosis: cell death detection by ELISA, RKO (colorectal carcinoma). It is filed as cell-based, human. To be noted: Homo sapiens, RKO, 10 uM, read-out: Fold induction of apoptosis, internal positive control (cont.). As to the method: Colorectal carcinoma, human (RKO) obtained from Dr. Bernie Vogelstein, were grown in Gibco's Delbecco Minimum Essential media (DMEM), high glucose, supplemented with sodium pyruvate, 10% FBS and 13 ng/mL gentamicin. Cells were incubated at 37° C., 4.5% CO2 and 95.5% humidified air.
as §1, §2, §3, §4, §5, §6, §7, §8, §9, §10, §11, §12, §13, §14, §15, §16, §17

In data set [2] the test system is retinoic acid X α, β and γ receptors (RXR). To be noted: cited from earlier work.
Another data set deals with tumors. To be noted: 9-cis RA and its analogs; cited from earlier work.
A further data set deals with RAR α, β and γ receptors. To be noted: cited from earlier work.
Setting [3] is: MDA435, 24 h, 24 hrs, read-out: Fold induction of apoptosis compared to no drug control.
The mark [4] stands for this setting: MDA435, 48 h, 48 hrs, read-out: Fold induction of apoptosis compared to no drug control.
Setting [5] is: MDA435, 72 h, 72 hrs, read-out: Fold induction of apoptosis compared to no drug control.
Setting [6] is: ZR-75-1, 24 h, 24 hrs, read-out: Fold induction of apoptosis compared to no drug control.
Where [7] appears, read: ZR-75-1, 48 h, 48 hrs, read-out: Fold induction of apoptosis compared to no drug control.
The mark [8] stands for this setting: ZR-75-1, 72 h, 72 hrs, read-out: Fold induction of apoptosis compared to no drug control.

With `COc1cccc2c1C(=O)c1c(O)c3c(c(O)c1C2=O)C[C@@](O)(C(=O)CO)C[C@@H]3O[C@H]1C[C@H](N)[C@H](O)[C@H](C)O1` [Adriamycin], in the data set with human carcinoma cells, the “Induction of apoptosis in human carcinoma cells (in words)” value is on record as “induce apoptosis”.
Take `CC1=C(/C=C/C(C)=C/C=C/C(C)=C/C(=O)O)C(C)(C)CCC1` [All-trans RA]: in the data set with tumor cells, the “Ability to induce apoptosis (in words)” value is “very limited” and the “Differentiation of certain tumor cells (in words)” value is given as “cause differentiation of certain tumor cells in vitro”.
In the case of `C/C(=C/C=C/C(C)=C/C(=O)O)c1cc(C(F)(F)F)cc(C(F)(F)F)c1` [(2E,4E,6Z)-7-[3,5-bis(trifluoromethyl)phenyl]-3,7-dimethyl-2,4,6-heptatrienoic acid], the fold induction at 1 µM with MDA-435 cells (setting [3]), with MDA-435 cells (setting [4]), in the data set on MDA-435 cells (setting [5]), in the data set with ZR-75-1 cells (setting [6]), with ZR-75-1 cells (setting [7]) and in the data set with ZR-75-1 cells (setting [8]) was 1 in each case. The fold induction at 3.3 µM in the data set on MDA-435 cells (setting [3]), in the data set on MDA-435 cells (setting [4]), with MDA-435 cells (setting [5]), with ZR-75-1 cells (setting [6]), in the data set on ZR-75-1 cells (setting [7]) and in the data set with ZR-75-1 cells (setting [8]) was 1 each time. Besides, the fold induction at 10 µM stood at 1 in the data set on MDA-435 cells (setting [3]); 1 with MDA-435 cells (setting [4]); 2 in the data set with MDA-435 cells (setting [5]); 1 with ZR-75-1 cells (ZR-75-1, 24 h, 24 hrs, 10 uM, read-out: Fold induction of apoptosis compared to no drug control); 1 with ZR-75-1 cells (ZR-75-1, 48 h, 48 hrs, 10 uM, read-out: Fold induction of apoptosis compared to no drug control); 2 in the data set on ZR-75-1 cells (ZR-75-1, 72 h, 72 hrs, 10 uM, read-out: Fold induction of apoptosis compared to no drug control). For the same molecule, the “Induction of apoptosis (in words)” value in data set [1] (72 h, compared with the corresponding amide) is recorded as “induces considerably lower amounts apoptosis only after 72 h”. Further, the “Activity against ER- and ER+ carcinoma cells (induction of apoptosis)” value in [1] (ER- and ER+ carcinoma cells) was “inactive”.
Regarding `O=c1[nH]cc(F)c(=O)[nH]1` [5FU], the “Induction of apoptosis in human carcinoma cells (in words)” value in the data set on human carcinoma cells was “induce apoptosis”.
As for `CC1=C(/C=C/C(C)=C\C=C\C(C)=C\C(=O)Nc2ccc(O)cc2)C(C)(C)CCC1` [9-cis 4-HPR, reference compound], the fold induction at 10 µM is 1 in the data set with H1299 cells (24 hrs); 15 in the data set with H1299 cells (48 hrs); 25 in the data set with H1299 cells (72 hrs); 8 in the data set on RKO cells (24 hrs); 9 in the data set with RKO cells (48 hrs); 5 in the data set with RKO cells (72 hrs). The fold induction at 10 µM in the data set on MDA-435 cells (MDA435, 48 h, 48 hrs, read-out: Fold induction of apoptosis, internal positive control (cont.)) is 15; in the data set with MDA-435 cells (MDA435, 72 h, 72 hrs, read-out: Fold induction of apoptosis, internal positive control (cont.)) it was 19; in the data set on ZR-75-1 cells (ZR-75-1, 24 h, 24 hrs, 10 uM, read-out: Fold induction of apoptosis, internal positive control (cont.)) it was 1. Besides, the “Fold induction of apoptosis, internal positive control (cont.)” value with MDA-435 cells (48 hrs, 2880 min) was 10 fold; with MDA-435 cells (72 hrs, 4320 min), 12 fold; in the data set on ZR-75-1 cells (24 hrs, 10 uM, 1440 min), 2 fold.
Consider `CC1=C(/C=C/C(C)=C\C=C\C(C)=C\C(=O)O)C(C)(C)CCC1` [9-cis RA], for which the “Binding to RXR (in words)” value in [2] is reported as “bind”. The “Tumor regression (in words)” value in the data set on tumors is given as “cause tumor regression”. Also, the “Binding to RAR (in words)” value in the data set on RAR α, β and γ receptors is given as “bind”.
As for `CC1=C(/C=C/C(C)=C/C=C/C(C)=C\C(=O)O)C(C)(C)CCC1` [13-cis RA], in the data set on tumor cells, the “Ability to induce apoptosis (in words)” value was “very limited” and the “Differentiation of certain tumor cells (in words)” value is reported as “cause differentiation of certain tumor cells in vitro”.
Turning to `CC(=O)O[C@H]1C(=O)[C@@]2(C)[C@H]([C@H](OC(=O)c3ccccc3)[C@]3(O)C[C@H](OC(=O)[C@H](O)[C@@H](NC(=O)c4ccccc4)c4ccccc4)C(C)=C1C3(C)C)[C@]1(OC(C)=O)CO[C@@H]1C[C@@H]2O` [Taxol], the “Induction of apoptosis in human carcinoma cells (in words)” value in the data set with human carcinoma cells is “induce apoptosis”.
